Measured values from US20240366624A1, “METHODS AND COMPOSITIONS FOR TREATING THROMBOTIC DISEASE” (Washington University, priority 2023, published 2024).
Entries after “also recorded” stand apart in the source; their conditions may differ.

Tests used:
[1] = thiol-reacting (GSH) activity assay; format: biochemical
Source text: FIG. 17(A-F) is an exemplary embodiment of identification of novel ERO1α inhibitors by high throughput screening in accordance with the present disclosure. FIG. 17A: A scheme of an ERO1α activity assay. FIG. 17B: Screening of chemical libraries in the ERO1α activity assay. FIG. 17C: The inhibitory effect of selected compounds on ERO1α activity. FIG. 17D: The inhibitory effect of selected compounds on PDI activity. FIG. 17E: The inhibitory effect of selected compounds on H2O2 activity. FIG. 17F: The inhibitory effect of selected compounds on thiol-reacting activity. The data represent the mean±SD (n=3). *P<0.05, **P<0.01, ***P<0.001, and ****P<0.0001 vs. vehicle control, Student's t-test.
To identify a novel ERO1α inhibitor, 5800 compounds were screened using an ERO1α activity assay (FIG. 17A and FIG. 17B). […] The selected compounds were further tested in assays measuring PDI, antioxidant, and thiol-reacting activities (FIG. 17D through FIG. 17F). […] B12 inhibited P-selectin exposure and αIIbβ3 activation in agonist-activated mouse and human platelets in a concentration-dependent manner (FIG. 18B through FIG. 18E).

[2] = test system: Ero1α-null platelets; test: Platelet aggregation, Ero1α-null platelets; format: cell-based, mouse
Procedure: FIG. 7(A-L) is an exemplary embodiment of crucial intracellular ERO1α (endoplasmic reticulum oxidoreductase 1a) for platelet activation, aggregation, and thrombus formation in accordance with the present disclosure. FIG. 7A: Ex vivo platelet thrombus formation in a flow chamber assay. Adherent and aggregated platelets were stained with rhodamine-conjugated phalloidin and imaged by confocal microscopy. Representative images (bar, 10 μm). Surface coverage and thrombus volume were measured (mean±SD, n=4). FIG. 7(B-E): Aggregation and ATP secretion of wild type (WT) and Ero1α-null platelets were induced by 0.025 U/mL thrombin, 0.05 μg/mL CRP (collagen-related peptide), 0.5 μM A23187, or 2.5 μM ADP. Platelet aggregation (i) and ATP secretion (ii). FIG. 7F: Ero1α-null platelets were pretreated with 50 μg/mL wtERO1α or wtPDI and then with 0.025 U/mL thrombin. Quantification graphs of aggregation and ATP secretion are presented as the mean±SD (n=3-4). FIG. 7G and FIG. 7H: P-selectin exposure and αIIbβ3 integrin activation of WT and Ero1α-null platelets were analyzed by flow cytometry. The data are presented as the geometric mean fluorescence intensity (MFI) value (mean±SD, n=3-4). FIG. 7I: WT and Ero1α-null platelets were treated with or without 0.025 U/mL thrombin for 1 minute in an aggregometer. The lysates were immunoprecipitated with control IgG or anti-β3 antibodies and subjected to immunoblotting with antibodies against talin1 or β3 and densitometric analysis (mean±SD, n=3). FIG. 7J: WT and Ero1α-null platelets were treated with or without 0.025 U/mL thrombin, followed by transmission electron microscopy. The original magnification was 34 800, and the extension was 313 000. Bar, 500 nm. FIG. 7K and FIG. 7L: Intravital microscopy was performed to determine the effect of 15E9 (1-3 μg/g body weight [BW]) and a blocking anti-PDI (protein disulfide isomerase) antibody (BD34, 3 μg/g BW) on platelet thrombus formation and fibrin generation at the site of laser-induced cremaster arteriolar injury (n=27-40 arterioles in 6 mice per group). The n indicates biological replicates. P values determined by unpaired Student t test (FIG. 7(A-E) and FIG. 7(G-1)), ANOVA and Dunnett test (FIG. 7F), or Mann-Whitney U test (FIG. 7K and FIG. 7L).
FIG. 9(A-C) is an exemplary embodiment of EN460 inhibiting thrombin-induced aggregation of mouse and human platelets in accordance with the present disclosure. […] P values determined by ANOVA and Dunnett's test (FIG. 9(A-B)) or Student's t-test (FIG. 9C).
FIG. 10(A-E) is an exemplary embodiment of 15E9 not affecting platelet activation and aggregation in accordance with the present disclosure. […] P values determined by unpaired Student's t-test (vs. mIgG1). […]

| SMILES | GSH inhibition at 100 μM (%) ([1]; 100 μM) | effect on thiol-reacting activity ([1]; at or up to 100 μM) | Ero1α-null platelet aggregation ([2]; 10 μM / up to 10 μM) | Ero1α-null platelet aggregation ([2]; 3 μM) | Ero1α-null platelet aggregation ([2]; 3 to 10 μM) |
| --- | --- | --- | --- | --- | --- |
| O=C(CSc1nc(O)cc(O)n1)N1c2ccccc2Sc2ccccc21 [B12-5] | 9.7 ± 2% | minimal effect; also recorded: did not affect | without affecting; also recorded: did not show an additional effect | – | – |
| O=C(O)c1cc(N2N=C(C(F)(F)F)/C(=C/c3ccc(-c4ccccc4)o3)C2=O)ccc1Cl [EN460] | – | – | – | abolished; also recorded: completely blocked | significantly inhibited |
